Experimental data reported in US11485742B2, “2-azaspiro[3.4]octane derivatives as M4 agonists” (NOVARTIS AG, priority 2019, dated 2022).

Columns and labels:
[1] = biological target: T1, human cloned CHRM5 receptor (Homo sapiens, UniProt P08912); assay: CHRM5 Ca++ Flux Assay (M5_CHO cells, agonist mode); type: cell-based; details: for Emax: read-out: M5 FDSS PA %; for EC50: agonist mode, geometric mean if tested more than once, read-out: M5 FDSS EC50
T1 construct: expressed in transfected cells; host or cells: CHO (M5_CHO)
T1 sequence (P08912 1-532): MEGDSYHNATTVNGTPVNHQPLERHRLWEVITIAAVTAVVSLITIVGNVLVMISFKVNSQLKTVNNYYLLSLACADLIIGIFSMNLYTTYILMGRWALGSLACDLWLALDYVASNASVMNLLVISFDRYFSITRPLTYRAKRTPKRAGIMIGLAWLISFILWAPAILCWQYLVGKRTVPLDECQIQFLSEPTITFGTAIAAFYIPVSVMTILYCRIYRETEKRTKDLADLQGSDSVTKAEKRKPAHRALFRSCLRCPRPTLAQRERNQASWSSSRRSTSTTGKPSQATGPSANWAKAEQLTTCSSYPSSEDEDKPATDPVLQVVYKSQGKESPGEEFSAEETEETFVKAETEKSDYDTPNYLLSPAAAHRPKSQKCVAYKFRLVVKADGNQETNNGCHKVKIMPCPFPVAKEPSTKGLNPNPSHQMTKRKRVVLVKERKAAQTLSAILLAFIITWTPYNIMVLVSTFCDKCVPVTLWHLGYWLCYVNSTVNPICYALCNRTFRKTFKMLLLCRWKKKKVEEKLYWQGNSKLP
Procedure, shortened: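 Agonist-mode calcium mobilisation: compounds, 11 concentrations in triplicate, applied to stable M3_CHO or M5_CHO cells loaded with Ca++ dye, fluorescence followed 3 min. Efficacy expressed against carbachol EC100; EC curves by four-parameter nonlinear regression, geometric mean across independent runs.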

[2] = biological target: T2, human cloned CHRM2 receptor (Homo sapiens, UniProt P08172); assay: CHRM2 Ca++ Flux Assay (M2_CHO cells, agonist mode); type: cell-based; details: M2 CHO cells; for EC50: agonist mode, geometric mean if tested more than once, read-out: M2 FDSS EC50; for Emax: read-out: M2 FDSS PA %
T2 construct: expressed in transfected cells; host or cells: CHO-K1 (M2_CHO)
T2 sequence (P08172 1-466): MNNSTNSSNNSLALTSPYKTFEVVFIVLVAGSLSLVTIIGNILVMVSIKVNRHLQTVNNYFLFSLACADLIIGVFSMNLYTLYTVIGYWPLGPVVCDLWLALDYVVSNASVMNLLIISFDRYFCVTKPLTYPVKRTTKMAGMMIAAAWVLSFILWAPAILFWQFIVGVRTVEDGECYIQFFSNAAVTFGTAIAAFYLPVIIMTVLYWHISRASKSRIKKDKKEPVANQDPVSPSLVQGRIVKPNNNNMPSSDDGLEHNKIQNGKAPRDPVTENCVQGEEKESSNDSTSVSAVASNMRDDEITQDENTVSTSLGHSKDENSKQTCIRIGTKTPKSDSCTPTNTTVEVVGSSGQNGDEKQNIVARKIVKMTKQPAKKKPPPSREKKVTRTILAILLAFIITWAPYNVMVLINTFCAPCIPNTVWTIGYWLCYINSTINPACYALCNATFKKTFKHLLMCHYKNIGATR
Procedure, shortened: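 Agonist activity was expressed as percent of the carbachol EC100 response, fitted by four-parameter regression on triplicate wells, with geometric means across repeat runs. Calcium traces over 3 minutes came from dye-loaded M2_CHO cells (12K/well) pre-incubated 60 min in Ca/Mg-free HBSS with 20 mM HEPES, 2.5 mM probenecid and 20 μM ATP.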

[3] = Percent Activity (PA) measured to EC100 of Carbachol

| Emax [1, 3] [%] | EC50 [1] [µM] | EC50 [2] [µM] | Emax [2, 3] [%] | M5 FDSS PA % [1, 3] [%] | M2 FDSS PA % [2, 3] [%] | SMILES |
| --- | --- | --- | --- | --- | --- | --- |
| 0 | > 25 | 7.98 | 22 | – | – | Fc1cc(F)c(OC2CC3(COC3)C2)c(C2CCN([C@@H]3COC4(C3)CN(c3nnco3)C4)CC2)c1 [Example 2AA, (S)-7-(4-(2-((2-oxaspiro[3.3]heptan-6-yl)oxy)-3,5-difluorophenyl)piperidin-1-yl)-2-(1,3,4-oxadiazol-2-yl)-5-oxa-2-azaspiro[3.4]octane] |
| 0 | > 25 | 4.85 | 27 | – | – | Fc1cc(F)c(OC2CCOCC2)c(C2CCN([C@@H]3COC4(C3)CN(c3nnco3)C4)CC2)c1 [Example 2BB, (S)-7-(4-(3,5-difluoro-2-((tetrahydro-2H-pyran-4-yl)oxy)phenyl)piperidin-1-yl)-2-(1,3,4-oxadiazol-2-yl)-5-oxa-2-azaspiro[3.4]octane] |
| 0 | > 25 | 2.07 | 37 | – | – | Fc1cc(F)c(O[C@@H]2CCOC2)c(C2CCN([C@@H]3COC4(C3)CN(c3nnco3)C4)CC2)c1 [Example 2CC, (S)-7-(4-(3,5-difluoro-2-(((R)-tetrahydrofuran-3-yl)oxy)phenyl)piperidin-1-yl)-2-(1,3,4-oxadiazol-2-yl)-5-oxa-2-azaspiro[3.4]octane] |
| 0 | > 25 | 6.76 | 23 | – | – | Fc1cc(F)c(OCC2COC2)c(C2CCN([C@@H]3COC4(C3)CN(c3nnco3)C4)CC2)c1 [Example 2DD, (S)-7-(4-(3,5-difluoro-2-(oxetan-3-ylmethoxy)phenyl)piperidin-1-yl)-2-(1,3,4-oxadiazol-2-yl)-5-oxa-2-azaspiro[3.4]octane] |
| 0 | > 25 | 2.94 | 50 | – | – | Fc1cc(F)c(OC2COC2)c(C2CCN([C@@H]3COC4(C3)CN(c3nnco3)C4)CC2)c1 [Example 2EE, (S)-7-(4-(3,5-difluoro-2-(oxetan-3-yloxy)phenyl)piperidin-1-yl)-2-(1,3,4-oxadiazol-2-yl)-5-oxa-2-azaspiro[3.4]octane] |
| 0 | > 25 | 0.312 | 28 | – | – | Fc1cc(OC2COC2)c(C2CCN([C@@H]3COC4(C3)CN(c3nnco3)C4)CC2)cc1F [Example 2FF, (S)-7-(4-(4,5-difluoro-2-(oxetan-3-yloxy)phenyl)piperidin-1-yl)-2-(1,3,4-oxadiazol-2-yl)-5-oxa-2-azaspiro[3.4]octane] |
| 0 | > 25 | > 25 | 0 | – | – | Fc1cc(OC2CCOCC2)c(C2CCN([C@@H]3COC4(C3)CN(c3nnco3)C4)CC2)cc1F [Example 2GG, (S)-7-(4-(4,5-difluoro-2-((tetrahydro-2H-pyran-4-yl)oxy)phenyl)piperidin-1-yl)-2-(1,3,4-oxadiazol-2-yl)-5-oxa-2-azaspiro[3.4]octane] |
| – | > 25 | 11.2 | – | 0 | 23 | C[C@H](Oc1ccc(F)cc1C1CCN([C@@H]2COC3(C2)CN(c2nnco2)C3)CC1)C1CCOCC1 [Example 2X, (S)-7-(4-(5-fluoro-2-((S)-1-(tetrahydro-2H-pyran-4-yl)ethoxy)phenyl)piperidin-1-yl)-2-(1,3,4-oxadiazol-2-yl)-5-oxa-2-azaspiro[3.4]octane or(S)-7-(4-(5-fluoro-2-((R)-1-(tetrahydro-2H-pyran-4-yl)ethoxy)phenyl)piperidin-1-yl)-2-(1,3,4-oxadiazol-2-yl)-5-oxa-2-azaspiro[3.4]octane] |
| 0 | > 25 | 0.76 | 24 | – | – | Fc1ccc(OCC2C3COCC32)c(C2CCN([C@@H]3COC4(C3)CN(c3nnco3)C4)CC2)c1 (stereo partly drawn) [Example 2Z, (7S)-7-(4-(2-((3-oxabicyclo[3.1.0]hexan-6-yl)methoxy)-5-fluorophenyl)piperidin-1-yl)-2-(1,3,4-oxadiazol-2-yl)-5-oxa-2-azaspiro[3.4]octane] |
